Measurements published in US12668589B2, “N-formamidopyrazoline derivative as P2X3 receptor antagonist and use thereof” (HANGZHOU WESTAN PHARMACEUTICAL TECHNOLOGY CO., LTD, priority 2020, dated 2026).

Columns and labels:
human P2X2/3 = target: T1, human P2X2/3 (Homo sapiens, UniProt P56373+Q9UBL9); assay: Inhibitory activity against human P2X2/3 (electrophysiological method); assay type: cell-based; conditions: read-out: hP2X2/3 (IC50)
T1 construct: expressed in transfected cells; host or cells: HEK293
T1 sequence (P56373 1-397): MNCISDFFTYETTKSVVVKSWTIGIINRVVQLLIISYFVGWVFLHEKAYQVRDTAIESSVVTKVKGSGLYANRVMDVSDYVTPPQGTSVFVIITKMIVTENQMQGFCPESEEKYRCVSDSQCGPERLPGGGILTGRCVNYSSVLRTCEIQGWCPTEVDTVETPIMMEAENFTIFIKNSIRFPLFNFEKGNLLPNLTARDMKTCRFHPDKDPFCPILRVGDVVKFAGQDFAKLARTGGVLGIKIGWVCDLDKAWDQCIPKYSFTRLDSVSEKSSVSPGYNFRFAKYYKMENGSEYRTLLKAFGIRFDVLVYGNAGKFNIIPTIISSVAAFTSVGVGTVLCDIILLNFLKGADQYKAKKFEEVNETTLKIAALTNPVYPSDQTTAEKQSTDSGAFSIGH
T1 sequence (Q9UBL9 1-471): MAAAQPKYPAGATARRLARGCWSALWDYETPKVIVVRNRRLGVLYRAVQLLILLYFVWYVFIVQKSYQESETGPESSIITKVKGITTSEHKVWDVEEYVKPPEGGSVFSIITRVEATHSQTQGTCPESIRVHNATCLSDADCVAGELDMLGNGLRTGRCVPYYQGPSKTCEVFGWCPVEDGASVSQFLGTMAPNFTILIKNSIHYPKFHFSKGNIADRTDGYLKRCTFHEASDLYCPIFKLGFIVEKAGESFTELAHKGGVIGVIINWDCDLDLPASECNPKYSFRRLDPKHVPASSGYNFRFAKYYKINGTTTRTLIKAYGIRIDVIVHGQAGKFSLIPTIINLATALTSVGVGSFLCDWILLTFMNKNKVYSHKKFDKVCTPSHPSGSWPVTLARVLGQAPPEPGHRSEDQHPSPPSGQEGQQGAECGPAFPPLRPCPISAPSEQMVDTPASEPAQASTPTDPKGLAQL

human P2X4 = target: T2, human P2X4 (Homo sapiens, UniProt Q99571); assay: Inhibitory activity against human P2X4 (electrophysiological method); assay type: cell-based; conditions: read-out: hP2X4 (IC50)
T2 construct: expressed in transfected cells; host or cells: HEK293
T2 sequence (Q99571 1-388): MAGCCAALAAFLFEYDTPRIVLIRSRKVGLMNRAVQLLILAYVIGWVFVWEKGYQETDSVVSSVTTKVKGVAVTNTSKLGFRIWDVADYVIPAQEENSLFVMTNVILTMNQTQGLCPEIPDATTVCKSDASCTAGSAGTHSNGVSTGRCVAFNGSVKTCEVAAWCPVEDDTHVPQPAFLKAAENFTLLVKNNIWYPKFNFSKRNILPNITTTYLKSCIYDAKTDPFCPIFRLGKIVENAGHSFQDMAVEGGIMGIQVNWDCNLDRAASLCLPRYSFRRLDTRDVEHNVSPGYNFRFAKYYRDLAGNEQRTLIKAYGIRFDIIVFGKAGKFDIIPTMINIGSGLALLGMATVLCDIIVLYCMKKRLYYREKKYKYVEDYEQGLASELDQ

[1] = Stability in simulated gastric fluids and simulated intestinal fluids; assay type: in vitro ADME; conditions: 1.25 μM, 37° C., up to 5 hours, pH 1.3 with pepsin / pH 6.8 with trypsin; result in words
Description: An LC-MS/MS method, wherein A liquid phase method adopts a gradient elution method. Chromatographic Column: ACQUITY UPLC® BEH C18 (2.1 mm×50 mm, 1.7 μm); Flow Rate: 0.35 mL/min; Injection Volume: 1 μL; Column Temperature: 40° C.; Automatic Sampler Temperature: 10° C.; Mobile Phase Compositions: mobile phase A: 0.1% formic acid water, and mobile phase B: acetonitrile. Mass spectrometry conditions adopt an ESI source, and positive ion and multiple reaction monitoring (MRM) modes were used for mass spectrometry analysis.
Simulated gastric fluid and simulated intestinal fluid samples were taken, in which 1,200 μL of an acetonitrile solution containing an internal standard (5 ng/mL loratadine) was added. Even vortex mixing was conducted at 2,500 rpm. Centrifuging was conducted for 10 minutes at 20,000 rcf at 4° C. […] Contents of prototype drugs were detected by LC-MS/MS. […]
MassLynx V4.2 software was used for data collecting. After integration parameters were optimized, target chromatographic peaks were automatically integrated, individual chromatographic peaks were not allowed to be integrated separately or manually, and retention time and a peak area were calculated. Data was collected by MassLynx V4.2, and subjected to integration processing to obtain the retention time and the peak area, and a peak area ratio of an analyte to an internal standard was calculated. […]

human P2X3 = target: T3, human P2X3 (Homo sapiens, UniProt P56373); assay: cell-based
T3 sequence (P56373 1-397): T1 sequence (P56373 1-397)
Description: An HEK293 cell line was used as cells. HEK293 cells were placed in a 37° C. incubator with 5% CO2 for culture. Passage was conducted when the cells grew to a density of 80% to 90%. A culture medium in an original 60 mm culture dish was discarded. After the cells were washed 3 times with a sterilized PBS solution, and the solution was blotted up. […] After the trypsin was blotted up, 3 mL of a cell culture medium was added to resuspend the cells. 0.5 mL of a resuspension solution was taken to be added into a new culture dish, and an total culture solution was supplemented to 5 mL. The culture dish was gently shaken to distribute the cells evenly, and then placed in a 37° C. incubator with 5% CO2 for culture.
First, treated slides were spread in a small 35 mm culture dish. 100 μL of resuspended cells were added, and then a total amount of a culture medium was supplemented to 2 mL. Target genes were transferred into the HEK293 cell line by adopting a calcium transfection method. Small dishes to be transfected were subjected to medium change 1 hour before transfection. 2 mL of a fresh cell culture solution was added. A 1.5 mL EP tube was taken, 200 μL of a 0.25 M CaCl2) solution was added, and 3 μg of plasmids to be transfected were added, and even mixing was conducted to form a DNA-CaCl2 solution. […] A pipette tip was used for mixing while adding. After adding all, gentle blowing and beating were conducted 8 to 10 times. After still standing for 5 minutes, they were added into small dishes. The small dishes were shaken slightly to mix the solution evenly, and the placed in a cell incubator. Culture mediums were replaced after 8 to 10 hours. Electrophysiological experiments were performed 24 to 48 hours after transfection.
Electrophysiological recording electrodes were obtained by two-step pulling by using an electrode puller (PP-10, Narishige). After an internal solution is injected into the electrodes, a water inlet resistance is 3 to 5 MΩ. During the experiment, a high potassium salt internal solution containing nystatin (K2SO4 of 75 mM, KCl of 120 mM, MgSO4 of 5 mM, HEPES of 10 mM, adjusting pH to 7.2 with Tris-base, and used after filtration) was used as an electrode internal solution. After the cells were sealed by the electrodes, there was no need to further break cell membranes in a sucked manner, but the cell membranes were bored through the perforation of the nystatin to the cell membranes, to form a hole channel. […] A clamping voltage was −60 mV, a sampling frequency was 10 kHz, and filtering was conducted at 2 kHz.
A working concentration of a P2X3 receptor agonist ATP was 1 μM, and an interval time between two times of ATP administrations was 10 minutes.

With `Cc1ccc(C2=NN(C(=O)N[C@H](C)c3ccc(C(F)(F)F)nc3)C[C@@H]2N2CCOC2=O)cc1` [Compound 22] the IC50 (human P2X2/3) was 2.42 µM, the IC50 (human P2X4) was greater than 20 µM and the “stability in artificial gastric and intestinal fluids” value [1] was “relatively stable”. It also gave an IC50 (human P2X3) of 0.056 µM.
For `CCOC(=O)N(C)[C@H]1CN(C(=O)N[C@H](C)c2cnc(C(F)(F)F)nc2)N=C1c1ccc(C)cc1` [Compound 4, (S)-4-(N-methyl-N-ethoxycarbonylamino)-3-(4-methylphenyl)-N-((R)-1-(2-(trifluoromethyl)pyrimidin-5-yl)ethyl)-4,5-dihydro-1H-pyrazol-1-carboxamide], the “stability in artificial gastric and intestinal fluids” value [1] was “relatively stable”.
